Test results reported in article PMC9785311, “Effect of Structural Differences in Naringenin, Prenylated Naringenin, and Their Derivatives on the Anti-Influenza Virus Activity and Cellular Uptake of Their Flavanones” (Pharmaceuticals, 2022).
Read-outs that look alike come from different tables or passages of the source.

Tests used:
[1] = system: influenza virus A/PR/8/34; assay: microbe, parasite or virus in culture; type: cell-based, Type A influenza virus H1N1 (PR/8/34); settings: for SI (Selectivity index = CC50/IC50): CC50 50% cytotoxicity concentration in MDCK cells (MTT), IC50 against A/PR/8/34
MDCK cells [2] = assay: Intracellular distribution by fluorescence microscopy of fixed cells; type: cell-based, canine; settings: 30 μM, 180 min exposure, fixed with 4% paraformaldehyde, DAPI
Description: Cells cultured on glass plates were exposed to a concentration of 30 μM for 180 min. The exposed cells were washed with PBS and the compounds were removed from the medium. The cells were then fixed with 4% paraformaldehyde and observed under a fluorescence microscope. […] The amount of naringenin taken up by the cells may be small. Moreover, fluorescence was detected for prenylated naringenin.
Figure 4 Analysis of prenylated naringenin and naringenin fluorescence distribution by imaging. After removing the medium, cells were treated with 30 μM compound for 180 min and fixed with 4% paraformaldehyde. Fixed cells were stained with DAPI (blue). These images show fluorescence of 8-prenylnaringenin (8-PN; A), 6-prenylnaringenin (6-PN; B), and naringenin (C). Scale bars = 50 μm.
Cells were cultured on glass plates and incubated in a medium supplemented with the compound for 180 min. They were then washed and fixed with 4% paraformaldehyde for 30 min. After washing with PBS, DAPI staining was performed. Intracellular distribution was photographed and observed using an inverted fluorescence phase-contrast microscope (BZ-X800, Keyence, Osaka, Japan).

[3] = system: influenza virus A/PR/8/34; assay: Time-of-addition assay; type: cell-based, Type A influenza virus H1N1 (PR/8/34); settings: 30 μM, MOI 0.01
From the text: We performed a time-of-addition assay to verify the effect of the prenyl group position on viral growth inhibition. Figure 7A,B show virus viability when exposed to each prenylated naringenin for each time duration. […] In previous studies, inhibitory effects differed depending on the flavonoid backbone. The anti-influenza virus effect depends on the position of the prenyl group, which is a novel observation of the present study.
Figure 7 Effect of prenylated naringenin on virus viability. (A) 8-PN and 6-PN (30 μM). (B) Schedule of the experiment. Cells were infected with influenza virus A/PR/8/34 at a multiplicity of infection of 0.01 in 24-well plates. After infection at each time point, the cells were harvested and viruses were assayed using a focus-forming reduction assay. […] Data are representative of three independent experiments. Standard deviation bars indicate each bar graph (*** p < 0.001, ** p < 0.01).
We conducted a time-of-addition assay as previously described. DMEM containing prenylated naringenin (30 μM) was added at −1–0 h (adsorption), 0–8 h (replication), 0–4 h, 0–2 h, 2–4 h, 4–8 h, 4–6 h, and 6–8 h. Furuta et al. estimated the intracellular cycle of infected cells before extracellular budding to be 8 h, and growth stages were assumed to occur at 2 h intervals.

MDCK cells [4] = assay: Efflux of prenylated naringenin after intracellular saturation; type: cell-based, canine; settings: for Release of intracellular compound from the cell: after 180 min exposure, compound-free DMEM containing 1% FBS, 0-240 min; for Fluorescence intensity change after 120 min culture in compound-free medium compared to 0 min: cells saturated by 180 min exposure, then DMEM containing 1% FBS for 120 min
Description: Based on our results, we examined the kinetics of intracellular prenylated naringenin in Dulbecco’s Modified Eagle Medium (DMEM) containing 1% fetal bovine serum (FBS). […] The intracellular kinetics changed greatly depending on the position of the prenyl group. After 120 min of culturing in the medium, the fluorescence intensity of 8-PN and 6-PN increased approximately 1.6-fold and 9.4-fold, respectively, compared to that at 0 min (Figure 6).
Figure 5 Efflux of prenylated naringenin after intracellular saturation. The amount of the compound in the cells was saturated by exposure for 180 min, and the cells were cultured in Dulbecco’s Modified Eagle Medium (DMEM) for 0, 120, and 240 min. After removing the medium, cells were fixed with 4% paraformaldehyde and stained with DAPI (blue). These images show 8-PN (A) and 6-PN (B) fluorescence. Scale bars = 50 μm.
Figure 6 Efflux and fluorescence intensity of intracellular prenylated naringenins. Fluorescence intensity of 8-PN and 6-PN from Figure 5. The standard deviation bars are indicated on each bar graph. *** p < 0.001.

MDCK cells [5] = assay: Cellular uptake by fluorescence microscopy; settings: 30 μM compound, phenol red-free medium, 60-360 min, about 20 cells per time point
[6] = A/PR/8/34 strain in MDCK cells, mean ± SD of three independent experiments, ND = not detected

| Molecule | IC50 [1, 6] | melting point [°C] | SI (Selectivity index = CC50/IC50) [1] | IC50 ([1]; PR/8, MDCK) [µM] | other results |
| --- | --- | --- | --- | --- | --- |
| O=C1CC(c2ccc(O)cc2)Oc2cc(O)c(CC=C3CCCCC3)c(O)c21 (stereo not drawn) [2c] | not detected | 204.4 to 205.2 | – | – | – |
| C=C(C)C(Cc1c(O)cc(O)c2c1OC(c1ccc(O)cc1)CC2=O)OC(C)=O (stereo not drawn) [1b] | lost and not active | 189 to 191.5 | – | – | – |
| CC(C)=CCc1c(O)cc2c(c1O)C(=O)C[C@@H](c1ccc(O)cc1)O2 [6-PN, 6-prenylnaringenin] | – | – | 5.5 | 38 ± 4.7 | Intracellular distribution of fluorescence (MDCK cells [2]): localize to the cytoplasmic periphery; Inhibition of virus growth, 2 h exposure (4–6 h after infection) [3]: high inhibition tendency; Inhibition of virus growth, late stage (6–8 h) [3]: block the late stage of viral growth; Release of intracellular compound from the cell (MDCK cells [4]): released relatively quickly; Fluorescence intensity change after 120 min culture in compound-free medium compared to 0 min (MDCK cells [4]): ~9.4 fold; Fluorescence intensity (intracellular uptake) (MDCK cells [5]): high fluorescence intensity |
| C=CCc1c(O)cc2c(c1O)C(=O)C[C@@H](c1ccc(O)cc1)O2 (racemic) [2a, 6-allylnaringenin] | weaker activities than 6-PN | – | 0.8 | 103 ± 3.8 | – |
| CC(C)CCc1c(O)cc(O)c2c1OC(c1ccc(O)cc1)CC2=O (stereo not drawn) [1d] | – | – | 3.0 | 61 ± 14 | – |
| CC(=O)OC(Cc1c(O)cc(O)c2c1OC(c1ccc(O)cc1)CC2=O)C(C)C (stereo not drawn) [1e] | lost and not active | 155 to 156 | – | – | – |
| (±)-Naringenin [reference compound] | – | – | 4.9 | – | IC50 ([1]; A/PR/8/34 strain in MDCK cells, mean ± SD of three independent experiments, ND = not detected, read-out: IC50): 290 ± 16.2 µM |
| CC(=O)Oc1ccc(C2CC(=O)c3c(O)cc(OC(C)=O)c(CCC(C)C)c3O2)cc1 (stereo not drawn) [1c] | – | – | 6.3 | 42 ± 2.1 | – |
| CCC(CC)O[C@@H]1C=C(C(=O)O)C[C@H](N)[C@H]1NC(C)=O [oseltamivir acid, reference compound] | – | – | – | 0.002 | – |
| CC1(C)OC1Cc1c(O)cc(O)c2c1OC(c1ccc(O)cc1)CC2=O (stereo not drawn) [1a] | – | 191.5 to 193 | 2.7 | 59 ± 9 | – |
| CC(=O)Oc1ccc(C2CC(=O)c3c(O)cc(OC(C)=O)cc3O2)cc1 (stereo not drawn) [Naringenin-4′,7′-diacetate] | – | – | – | – | IC50 ([1]; A/PR/8/34 strain in MDCK cells, mean ± SD of three independent experiments, ND = not detected, listed as naringenin-4′,7-diacetate): markedly lost its anti-influenza activity; IC50 ([1]; A/PR/8/34 strain in MDCK cells, mean ± SD of three independent experiments, ND = not detected, listed as naringenin-4′,7′-diacetate): lost its activity |
| CC(C)CCc1c(O)cc2c(c1O)C(=O)CC(c1ccc(O)cc1)O2 (stereo not drawn) [2b] | weaker activities than 6-PN | – | 1.3 | 58 ± 15.2 | – |
| CC(C)=CCc1c(O)cc(O)c2c1O[C@H](c1ccc(O)cc1)CC2=O [8-PN, 8-prenylnaringenin] | – | – | 4.9 | 24 ± 0.6 | Intracellular distribution of fluorescence (MDCK cells [2]): distributed mostly in the cytoplasm and nucleus; Inhibition of virus growth, exposure during virus adsorption period (−1–0 h) [3]: high inhibitory effect; Inhibition of virus growth, late stage (6–8 h) [3]: block the late stage of viral growth; Release of intracellular compound from the cell (MDCK cells [4]): released from the cell slowly; Fluorescence intensity change after 120 min culture in compound-free medium compared to 0 min (MDCK cells [4]): approximately 1.6 fold; Fluorescence intensity (intracellular uptake) (MDCK cells [5]): high fluorescence intensity |
| O=C1CC(c2ccc(O)cc2)Oc2cc(O)c(CCC3CCCCC3)c(O)c21 (stereo not drawn) [2d] | not detected | 213.3 to 215.3 | – | – | – |
